EP0125420B1, “Water soluble dispersions of chlorthalidone and process for preparing them” (Boehringer Ingelheim Pharmaceuticals Inc., priority 1983, dated 1984)
Converted amounts (≈) assume the structure as drawn.

What was measured:
physchem = assay type: physicochemical; settings: organic solvent or mixture
Source text: The amount of the Cl-C4 alkanol employed in the process of the invention should be sufficient to solubilize both the polymeric carrier and chlorthalidone. It will be apparent to those skilled in the art that best results will be achieved on a large scale using as high a concentration of chlorthalidone as is possible. Thus, optimally the process should be carried out using concentrations of chlorthalidone at the upper limits of solubility.

[1] = stability of the solution to ether formation; assay type: physicochemical; settings: chlorthalidone added to solution of polymeric carrier in C1-C4 alkanol
Source text: The polymeric carrier polyvinylpyrrolidone (PVP), used in the process of the invention must be pharmaceutically acceptable and be substantially soluble both in water and in the particular Cl-C4 alkanol selected for use in the process. Moreover, the polymeric carrier must be capable of forming a solid state dispersion of chlorthalidone after removal of the alkanol, and be capable of suppressing ether formation arising from reaction of the chlorthalidone with the Cl-C4 alkanol, as discussed above. The ability of a polymeric carrier to suppress ether formation can be determined routinely by dissolving chlorthalidone in a Cl-C4 alkanol, such as methanol, in a glass container in the presence and absence of the polymeric carrier and analyzing aliquots of the solution (taken at varying times up to 24 hours) for chlorthalidone content by HPLC techniques. An acceptable loss of chlorthalidone is up to about 2% after 24 hours at 40°C. The general use of polyvinylpyrrolidone (PVP), to prepare solid state dispersions of pharmaceutical active ingredients is described by the Chiou reference, supra. […] It is believed that PVP suppresses the formation of ethers primarily by complexing trace amounts of heavy metal ions thus making them unavailable for catalysis. […]

[2] = water; cited from earlier work

SMILES: NS(=O)(=O)c1cc(C2(O)NC(=O)c3ccccc32)ccc1Cl (stereo not drawn) [Chlorthalidone]
- solubility thermodynamic (physchem; ethanol): 15.5 mg/mL (≈ 45.8 mM)
- solubility thermodynamic (physchem; isopropanol): 3.2 mg/mL (≈ 9.45 mM)
- solubility thermodynamic (physchem; methanol): 76.1 mg/mL (≈ 225 mM)
- stable to ether formation ([1]; continued heating): at least one hour
- stable to ether formation ([1]; room temperature): at least four days
- aqueous solubility [2]: ~0.12 mg/mL (≈ 0.354 mM)
